Assay results reported in the supplement of paper PMC11208160.

Experiment: recombinant barcode read abundance after kanamycin selection (control-corrected) (log10(CPM+1)); higher = more efficient recombination; sequences stand for … in AGTGCAGAGAAAATCGGCCAGTTTTCTCTGCCTGCAGTCCGCATGCCGT…ATTTATGCAGCGGACTGCCTTTCTCCCAAAGTGATAAACCGGACAGTATCATGGACCGGTTTTCCCGGTAATCCGTATTTGCAAGGTTGGTTTCACT; site = the 11-nt target
Procedure: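 Same pooled E. coli target screen (IS621 bridge recombinase, kanamycin selection, control-corrected CPM, mean of 2 biological replicates). Here the two core-binding nucleotides of the LTG and RTG of the bridge RNA target-binding loop are mutated. Target and donor CT cores are held constant, and the other 9 guide positions match the target. The target is read from the library oligo sequence. Molecule = full bridge RNA written as DNA: nt 1-80 from the library oligo, rest WT scaffold.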

| Sequence | recombinant barcode read abundance (log10) |
| --- | --- |
| AAACACAAATGGGTTCTAACCTGTTGCCTTT [AAACACACTAG_LTGcore_AA_RTGcore_AA] (site AAACACACTAG) (LTG core: AA, RTG core: AA) | 0.0994 |
| AAACACAAGTGGGTTCTAACCTGTTGCCTAG [AAACACACTAG_LTGcore_AG_RTGcore_CT] (site AAACACACTAG) (LTG core: AG, RTG core: CT) | 0.0385 |
| AAACACACCTGGGTTCTAACCTGTTGCCTGG [AAACACACTAG_LTGcore_CC_RTGcore_CC] (site AAACACACTAG) (LTG core: CC, RTG core: CC) | 1.46 |
| AAACACACGTGGGTTCTAACCTGTTGCCTAG [AAACACACTAG_LTGcore_CG_RTGcore_CT] (site AAACACACTAG) (LTG core: CG, RTG core: CT) | 0.622 |
| AAACACACTTGGGTTCTAACCTGTTGCCTGG [AAACACACTAG_LTGcore_CT_RTGcore_CC] (site AAACACACTAG) (LTG core: CT, RTG core: CC) | 0.927 |
| AAACACACTTGGGTTCTAACCTGTTGCCTGT [AAACACACTAG_LTGcore_CT_RTGcore_AC] (site AAACACACTAG) (LTG core: CT, RTG core: AC) | 0.639 |
| AAACACACTTGGGTTCTAACCTGTTGCCTTT [AAACACACTAG_LTGcore_CT_RTGcore_AA] (site AAACACACTAG) (LTG core: CT, RTG core: AA) | 0.938 |
| AAACACAGATGGGTTCTAACCTGTTGCCTAG [AAACACACTAG_LTGcore_GA_RTGcore_CT] (site AAACACACTAG) (LTG core: GA, RTG core: CT) | 0.0116 |
| AAACACATGTGGGTTCTAACCTGTTGCCTCA [AAACACACTAG_LTGcore_TG_RTGcore_TG] (site AAACACACTAG) (LTG core: TG, RTG core: TG) | 0.0962 |
| AAACACATTTGGGTTCTAACCTGTTGCCTAG [AAACACACTAG_LTGcore_TT_RTGcore_CT] (site AAACACACTAG) (LTG core: TT, RTG core: CT) | 0.0289 |
| AAACAGTAGTGGGTTCTAACCTGTTGCCTCT [AAACAGTCTAG_LTGcore_AG_RTGcore_AG] (site AAACAGTCTAG) (LTG core: AG, RTG core: AG) | 0.13 |
| AAACAGTATTGGGTTCTAACCTGTTGCCTAT [AAACAGTCTAG_LTGcore_AT_RTGcore_AT] (site AAACAGTCTAG) (LTG core: AT, RTG core: AT) | 0.204 |
| AAACAGTCTTGGGTTCTAACCTGTTGCCTAG [AAACAGTCTAG_LTGcore_CT_RTGcore_CT] (site AAACAGTCTAG) (LTG core: CT, RTG core: CT) | 2.46 |
| AAACAGTCTTGGGTTCTAACCTGTTGCCTGA [AAACAGTCTAG_LTGcore_CT_RTGcore_TC] (site AAACAGTCTAG) (LTG core: CT, RTG core: TC) | 0.883 |
| AAACAGTCTTGGGTTCTAACCTGTTGCCTGG [AAACAGTCTAG_LTGcore_CT_RTGcore_CC] (site AAACAGTCTAG) (LTG core: CT, RTG core: CC) | 0.921 |
| AAACAGTCTTGGGTTCTAACCTGTTGCCTTA [AAACAGTCTAG_LTGcore_CT_RTGcore_TA] (site AAACAGTCTAG) (LTG core: CT, RTG core: TA) | 1.78 |
| AAACAGTGCTGGGTTCTAACCTGTTGCCTAG [AAACAGTCTAG_LTGcore_GC_RTGcore_CT] (site AAACAGTCTAG) (LTG core: GC, RTG core: CT) | 0.16 |
| AAACAGTTCTGGGTTCTAACCTGTTGCCTGA [AAACAGTCTAG_LTGcore_TC_RTGcore_TC] (site AAACAGTCTAG) (LTG core: TC, RTG core: TC) | 0.262 |
| AAACATGAATGGGTTCTAACCTGTTGCCTTT [AAACATGCTAG_LTGcore_AA_RTGcore_AA] (site AAACATGCTAG) (LTG core: AA, RTG core: AA) | 0.133 |

| Sequence | recombinant barcode read abundance (log10) |
| --- | --- |
| AAACATGACTGGGTTCTAACCTGTTGCCTAG [AAACATGCTAG_LTGcore_AC_RTGcore_CT] (site AAACATGCTAG) (LTG core: AC, RTG core: CT) | 0.0862 |
| AAACATGATTGGGTTCTAACCTGTTGCCTAT [AAACATGCTAG_LTGcore_AT_RTGcore_AT] (site AAACATGCTAG) (LTG core: AT, RTG core: AT) | 0.0454 |
| AAACATGCATGGGTTCTAACCTGTTGCCTAG [AAACATGCTAG_LTGcore_CA_RTGcore_CT] (site AAACATGCTAG) (LTG core: CA, RTG core: CT) | 0.141 |
| AAACATGCATGGGTTCTAACCTGTTGCCTTG [AAACATGCTAG_LTGcore_CA_RTGcore_CA] (site AAACATGCTAG) (LTG core: CA, RTG core: CA) | 0.0197 |
| AAACATGCTTGGGTTCTAACCTGTTGCCTAG [AAACATGCTAG_LTGcore_CT_RTGcore_CT] (site AAACATGCTAG) (LTG core: CT, RTG core: CT) | 1.43 |
| AAACATGCTTGGGTTCTAACCTGTTGCCTGA [AAACATGCTAG_LTGcore_CT_RTGcore_TC] (site AAACATGCTAG) (LTG core: CT, RTG core: TC) | 1.4 |
| AAACATGGCTGGGTTCTAACCTGTTGCCTAG [AAACATGCTAG_LTGcore_GC_RTGcore_CT] (site AAACATGCTAG) (LTG core: GC, RTG core: CT) | 0.349 |
| AAACATGGCTGGGTTCTAACCTGTTGCCTGC [AAACATGCTAG_LTGcore_GC_RTGcore_GC] (site AAACATGCTAG) (LTG core: GC, RTG core: GC) | 0.233 |
| AAACATGTGTGGGTTCTAACCTGTTGCCTAG [AAACATGCTAG_LTGcore_TG_RTGcore_CT] (site AAACATGCTAG) (LTG core: TG, RTG core: CT) | 0.0752 |
| AAACATGTTTGGGTTCTAACCTGTTGCCTAA [AAACATGCTAG_LTGcore_TT_RTGcore_TT] (site AAACATGCTAG) (LTG core: TT, RTG core: TT) | 0.632 |
| ACGGGACAGTGGGTTCTAACCTGTTGCAGAG [ACGGGACCTCT_LTGcore_AG_RTGcore_CT] (site ACGGGACCTCT) (LTG core: AG, RTG core: CT) | 0.111 |
| ACGGGACCATGGGTTCTAACCTGTTGCAGAG [ACGGGACCTCT_LTGcore_CA_RTGcore_CT] (site ACGGGACCTCT) (LTG core: CA, RTG core: CT) | 2.09 |
| ACGGGACCATGGGTTCTAACCTGTTGCAGTG [ACGGGACCTCT_LTGcore_CA_RTGcore_CA] (site ACGGGACCTCT) (LTG core: CA, RTG core: CA) | 0.127 |
| ACGGGACCCTGGGTTCTAACCTGTTGCAGAG [ACGGGACCTCT_LTGcore_CC_RTGcore_CT] (site ACGGGACCTCT) (LTG core: CC, RTG core: CT) | 2.22 |
| ACGGGACCTTGGGTTCTAACCTGTTGCAGTT [ACGGGACCTCT_LTGcore_CT_RTGcore_AA] (site ACGGGACCTCT) (LTG core: CT, RTG core: AA) | 0.29 |
| ACGGGACGCTGGGTTCTAACCTGTTGCAGGC [ACGGGACCTCT_LTGcore_GC_RTGcore_GC] (site ACGGGACCTCT) (LTG core: GC, RTG core: GC) | 0.151 |
| ACGGGACGTTGGGTTCTAACCTGTTGCAGAC [ACGGGACCTCT_LTGcore_GT_RTGcore_GT] (site ACGGGACCTCT) (LTG core: GT, RTG core: GT) | 0.0225 |
| ACGGGACTCTGGGTTCTAACCTGTTGCAGAG [ACGGGACCTCT_LTGcore_TC_RTGcore_CT] (site ACGGGACCTCT) (LTG core: TC, RTG core: CT) | 0.0751 |

Experiment: recombinant barcode read abundance after kanamycin selection (control-corrected) (log10(CPM+1)); higher = more efficient recombination; sequences stand for … in AGTGCAGAGAAAATCGGCCAGTTTTCTCTGCCTGCAGTCCGCATGCCGT…AGATTTATGCAGCGGACTGCCTTTCTCCCAAAGTGATAAACCGGACAGTATCATGGACCGGTTTTCCCGGTAATCCGTATTTGCAAGGTTGGTTTCACT; site = the 11-nt target
In short: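 Each value is log10(CPM+1). It describes recombination efficiency, taken as averaged, control-corrected counts per million of barcodes at recombinant junctions. The pooled E. coli library paired targets with IS621 bridge RNA target-binding loops, was co-electroporated with a donor plasmid, and was plated twice on chloramphenicol/ampicillin LB agar (control) and twice on chloramphenicol/ampicillin/kanamycin containing 0.1 mM IPTG.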

| Sequence | recombinant barcode read abundance (log10) |
| --- | --- |
| TTGTCGACTTGGGTTCTAACCTGTTGCCA (site TTGCCGACTTG) | 0.0807 |
| TTGTCGACTTGGGTTCTAACCTGTTGCCA (site TTGGCGACTTG) | 0.00572 |
| TTGTCGACTTGGGTTCTAACCTGTTGCCA (site TTGTCGACTTG) | 0.087 |
| TTGTGAGCTTGGGTTCTAACCTGTTGCCA (site ACAGTTACTAT) | 0.0715 |
| TTGTGAGCTTGGGTTCTAACCTGTTGCCA (site TTGTGAGCTTG) | 1.1 |
